Our source for the Inhibition percent values is publication PMC9995496, “A screen for MeCP2-TBL1 interaction inhibitors using a luminescence-based assay” (Scientific Reports, 2023).

In the first test the target is T1, MeCP2-TBL1 interaction (MeCP2-SmBiT / TBL1-LgBiT) (Mus musculus, UniProt Q9QXE7).
T1 construct: expressed in transfected cells; crude lysate used as a cell-free assay
T1 sequence (Q9QXE7 166-527): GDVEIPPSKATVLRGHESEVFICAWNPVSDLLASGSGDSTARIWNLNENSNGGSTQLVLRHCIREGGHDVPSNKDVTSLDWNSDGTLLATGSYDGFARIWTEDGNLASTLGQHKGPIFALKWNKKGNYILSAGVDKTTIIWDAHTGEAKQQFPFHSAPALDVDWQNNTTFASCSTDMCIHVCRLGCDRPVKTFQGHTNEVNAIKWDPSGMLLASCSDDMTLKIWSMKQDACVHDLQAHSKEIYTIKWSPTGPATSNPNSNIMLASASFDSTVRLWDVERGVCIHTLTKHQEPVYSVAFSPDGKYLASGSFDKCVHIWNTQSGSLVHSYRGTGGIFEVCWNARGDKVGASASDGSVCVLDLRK
Put plainly: MeCP2-TBL1 NanoLuc luciferase complementation assay (cell-free, extracts of transfected HEK293 cells).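 Note: each compound tested at 20 µM final concentration.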 Conditions: primary screen of Asinex library, single well per compound. Format: binding, human. In a few lines: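 Cell-free split NanoLuc: lysate of HEK293 cells co-expressing the MeCP2 C-terminal half-SmBiT and TBL1 WD domain-LgBiT, mixed 1:1 with furimazine. After 30 min at room temperature, luminescence was plate-median normalized.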
For `Cc1nc(C2CCN(C(=O)C3CCCCC3)C2)nc2c1CC(=O)N2CCCc1ccccc1` (centres unmarked) [BDF_25113060], the Inhibition percent is listed as -1.14.

Take `Cc1ccc(=O)n(CC(=O)N2CCOC3(CC=CCN(CCc4ccccc4)C3=O)C2)n1` (centres unmarked) [BDF_25862113]: the Inhibition percent worked out at 3.93.

Regarding `CC(=O)N[C@@]12CCN(S(=O)(=O)Cc3cccc(Cl)c3)C[C@@H]1[C@@H](c1ccccc1)N(C(C)=O)C2` [BDF_30361318], the Inhibition percent was -5.79.

On to `COCCOc1cccc(CN2[C@H](Cc3ccccc3F)C[C@@H]3NC(=O)CCCC[C@H]32)c1` [BDG_23917768], for which the Inhibition percent is -0.22.

For the compound `Cc1cc(C)nc(NCCCC(=O)N2[C@H](Cc3ccccc3)C[C@]3(C)NC(=O)CCC[C@H]23)n1` [BDG_24639132], the Inhibition percent was -1.41.

On to `C[C@@]12C[C@H]3[C@@H](Cc4ccccc4)N[C@@H]1CCC[C@@H]2N3C(=O)c1cccc(Cc2ccccc2F)n1` [BDG_33393042], for which the Inhibition percent is -2.99.

Regarding `C[C@]12C[C@@H]3N[C@H]1CCCC[C@H]2N(C(=O)COc1ccc(F)cc1F)[C@H]3Cc1ccccc1` [BDG_33505865], the Inhibition percent is 1.00.

On to `C[C@]12C[C@@H](Cc3ccccc3)N(C(=O)CCNC(=O)c3cccnc3)[C@H]1CCCC(=O)N2` [BDG_33627395], for which the Inhibition percent came out at 0.80.

On to `CC(=O)N[C@H]1C[C@@H](C(=O)N(C)C)N(C(=O)CCCn2c(C)nc3ccccc32)[C@H]1c1ccccc1` [BDG_33630230], for which the Inhibition percent is -0.15.

As for `CC(=O)N[C@H]1C[C@@H](C(=O)N(C)C)N(C(=O)CCn2cnc3ccccc32)[C@H]1c1ccccc1` [BDG_33631962], the Inhibition percent amounted to 5.65.

The test is the same for the next values; noted with them: primary screen of the Asinex library, sheet "Sargen output Asinex library", one well per compound.
Turning to `Cc1cc(C)nc(NCCC(=O)N2CCOC(c3cccc(Cc4ccccc4C)n3)C2)n1` (centres unmarked) [BDF_25252602], the Inhibition percent is -1.37%.

With `CNC(=O)c1ccc(-c2cccc(C3CN(CC(=O)NCc4ccccn4)CCO3)n2)cn1` (centres unmarked) [BDF_25324043], the Inhibition percent is on record as 1.99%.

For the compound `Cc1cccc(CN(CCc2c[nH]c3ccccc23)[C@@H]2CC[C@@H](NCc3ccccc3)[C@H]2O)c1` [BDF_33953574], the Inhibition percent is recorded as 3.88%.

`CN(CCC(=O)N1[C@H](Cc2ccccc2)C[C@]2(C)NC(=O)CCC[C@H]12)Cc1ccccn1` [BDG_24639113]: the Inhibition percent is recorded as -2.30%.

For `CC(=O)N[C@@]12CCN(CCOc3ccc(F)cc3)C[C@@H]1[C@@H](c1ccccc1)N(C(C)=O)C2` [BDG_30283198], the Inhibition percent is on record as -0.86%.

Take `C[C@]12C[C@@H]3N[C@H]1CCC[C@H]2N(C(=O)c1cccc(Cc2ccccc2F)n1)[C@H]3Cc1ccccc1` [BDG_33393043]: the Inhibition percent amounted to 5.29%.

Take `COc1cccc(-c2cc(C(=O)N3[C@H]4CCC[C@H]5N(C)[C@H](Cc6ccccc6)[C@@H]3C[C@@]45C)on2)c1` [BDG_33506470]: the Inhibition percent came to 3.67%.

Consider `Cc1nc(-c2cccnc2)sc1C(=O)N1[C@H]2CCC[C@H]3N[C@H](Cc4ccccc4)[C@@H]1C[C@@]23C` [BDG_33506581], for which the Inhibition percent was -1.21%.

Regarding `CC(=O)N1[C@@H](Cc2ccccc2)[C@@H]2C[C@@]3(C)[C@H](CCCC[C@@H]13)N2Cc1ccc(OCC(=O)O)cc1` [BDG_33507682], the Inhibition percent was found to be 3.50%.

`CCc1nccn1-c1ccc(C(=O)N2[C@H]3CCC[C@H]4N[C@@H](Cc5ccccc5)[C@@H]2C[C@@]34C)cn1` [BDG_33507727]: the Inhibition percent was -2.00%.

For the compound `CN(CCC(=O)N1[C@H](Cc2ccccc2)C[C@]2(C)NC(=O)CCC[C@H]12)Cc1cccnc1` [BDG_33630477], the Inhibition percent was -2.32%.

Consider `COc1ccc2c(c1)[C@H]1OCC3(CCN(Cc4cnccn4)CC3)C[C@@H]1C(C)(C)O2` [BDG_33690689], for which the Inhibition percent is given as -2.69%.

Turning to `Cc1cnc(C(=O)N2CCC3(CC2)CO[C@@H]2c4ccc(O)cc4OC(C)(C)[C@H]2C3)cn1` [BDG_33691581], the Inhibition percent was determined as 1.04%.

The same test, now with this note: primary screen of the Asinex library, sheet "Sargen output Asinex library", one well per compound, Batch Ref. 1.
For `Cc1nnc(Nc2cccc(C3CN(C(=O)Cn4c(C)cc5ccccc54)CCO3)n2)s1` (centres unmarked) [BDF_25244494], the Inhibition percent is reported as -1.26%.

Turning to `Cc1cc(Nc2cccc(C3CN(C(=O)Cc4ccc5c(c4)CCCO5)CCO3)n2)nn1C` (centres unmarked) [BDF_25246163], the Inhibition percent is recorded as -0.41%.

On to `Cc1ccccc1Cc1cccc(C2CN(C(=O)c3nccc4ccccc34)CCO2)n1` (centres unmarked) [BDF_25249064], for which the Inhibition percent was 6.97%.

Consider `O=C(CCc1[nH]nc2c1CCCC2)N1CCOC(c2cccc(Cc3ccc(F)cc3)n2)C1` (centres unmarked) [BDF_25251125], for which the Inhibition percent is reported as -1.98%.

As for `NC(=O)c1cccc(-c2cccc(C3CN(C(=O)CCc4cccc(Cl)c4)CCO3)n2)c1` (centres unmarked) [BDF_25272769], the Inhibition percent is recorded as 7.95%.

Consider `O=C(CC1CCCCC1)N1CCOC(c2nccnc2-c2cccc(C(F)(F)F)c2)C1` (centres unmarked) [BDF_25939482], for which the Inhibition percent was 0.68%.

`Cc1cc(-c2ccc(N)nc2)cc(C2CN(C(=O)CCc3cccc(Cl)c3)CCO2)n1` (centres unmarked) [BDF_26216758]: the Inhibition percent turned out to be 8.38%.

As to `Cc1cc(Cc2cccc(F)c2)cc(C2CN(C(=O)Cc3ccc(F)cc3)CCO2)n1` (centres unmarked) [BDF_26219393], the Inhibition percent is recorded as -0.80%.

As for `Cc1cc(Cc2ccccc2F)cc(C2CN(C(=O)Cn3cnc4ccccc43)CCO2)n1` (centres unmarked) [BDF_26219772], the Inhibition percent amounted to 3.08%.

For the compound `Cc1nc(C2(O)CCCN(Cc3ccncc3)CC2)sc1CCOc1ccccc1` (centres unmarked) [BDF_26909339], the Inhibition percent is listed as -3.76%.

As for `FC(F)(F)c1ccccc1Cc1cccc(C2CN(Cc3cccnc3)CCO2)n1` (centres unmarked) [BDF_27574784], the Inhibition percent is on record as 32.27%.

For the compound `CC(=O)Nc1ccc(C(=O)N2CCOC(c3cccc(Cc4ccccc4Cl)n3)C2)cc1` (centres unmarked) [BDF_27578760], the Inhibition percent was found to be 0.59%.

Take `CC(=O)Nc1cccc([C@@H]2CN(CCc3ccc(F)cc3)C[C@]23CCCCC(=O)N3)c1` [BDF_30280717]: the Inhibition percent was -0.37%.

Turning to `COc1ccccc1-c1ccc(CN2[C@@H](c3ccccc3)C[C@@H]3NC(=O)CCC[C@H]32)cc1` [BDG_23930473], the Inhibition percent is given as 6.28%.

With `Cn1c(CCC(=O)N2CC[C@@H]3[C@H]2CCCC(=O)N3Cc2ccc(F)cc2)nc2ccccc21` [BDG_23960040], the Inhibition percent worked out at 1.86%.

In the case of `O=C1CCC[C@H]2[C@@H](C[C@@H](c3cccc(C(F)(F)F)c3)N2C(=O)CCc2ccccc2)N1` [BDG_27570843], the Inhibition percent is reported as 0.77%.

For the compound `C[C@]12C[C@@H]3N[C@H]1CCC[C@H]2N(Cc1ccccc1C(=O)O)[C@H]3Cc1ccccc1` [BDG_33391350], the Inhibition percent is -0.20%.

Take `C[C@]12C[C@@H]3N[C@H]1CCC[C@H]2N(C(=O)COc1ccccc1F)[C@H]3Cc1ccccc1` [BDG_33391690]: the Inhibition percent is reported as 4.10%.

As to `C[C@@]12C[C@H]3[C@H](Cc4ccccc4)N[C@@H]1CCCC[C@@H]2N3C(=O)CNC(=O)c1ccccc1` [BDG_33503003], the Inhibition percent was 1.11%.

Consider `CC(=O)N1[C@H](Cc2ccccc2)[C@@H]2C[C@@]3(C)[C@H](CCC[C@@H]13)N2C(=O)CNC(=O)c1ccccc1` [BDG_33503016], for which the Inhibition percent was determined as 3.61%.

As to `COc1ccccc1OCC(=O)N1[C@@H](Cc2ccccc2)[C@@H]2C[C@@]3(C)[C@H](CCC[C@@H]13)N2` [BDG_33503207], the Inhibition percent was found to be 2.88%.

As for `COc1cccc(-c2cc(C(=O)N3[C@H]4CCC[C@H]5N(C)[C@@H](Cc6ccccc6)[C@@H]3C[C@@]45C)[nH]n2)c1` [BDG_33504530], the Inhibition percent is listed as 8.58%.

For `C[C@@]12C[C@H]3[C@@H](Cc4ccccc4)N[C@@H]1CCCC[C@@H]2N3C(=O)CNC(=O)c1cncc(O)c1` [BDG_33504652], the Inhibition percent was 0.85%.

Turning to `CCOc1ccc(-c2cc(C(=O)N3[C@@H](Cc4ccccc4)[C@@H]4C[C@@]5(C)[C@H](CCC[C@@H]35)N4)[nH]n2)cc1` [BDG_33504765], the Inhibition percent is on record as 12.86%.

As for `C[C@@]12C[C@H]3[C@H](Cc4ccccc4)N[C@@H]1CCCC[C@@H]2N3C(=O)COc1ccccc1` [BDG_33505297], the Inhibition percent is listed as -0.84%.

Turning to `C[C@@]12C[C@H]3[C@H](Cc4ccccc4)N[C@@H]1CCC[C@@H]2N3C(=O)c1ccnc(Cc2ccccc2F)c1` [BDG_33507770], the Inhibition percent was -1.87%.

As to `O=C(COc1ncnc2ccccc12)N1C[C@@H]2CC[C@H](Oc3ccc(Cl)cc3)[C@@H]2C1` [BDG_33516371], the Inhibition percent was 0.45%.

As to `CN(C)[C@@H]1C[C@@H](C(N)=O)N(CC(=O)Nc2ccc(Oc3ccccc3)cc2)[C@H]1c1ccccc1` [BDG_33626169], the Inhibition percent stood at 3.84%.

As for `Cn1c(COCC(=O)N2[C@H](Cc3ccccc3)C[C@]3(C)NC(=O)CCC[C@H]23)nc2ccccc21` [BDG_33628430], the Inhibition percent is reported as -0.52%.

With `C[C@]12C[C@@H](Cc3ccccc3)N(C(=O)CCCNc3ncnc4ccccc34)[C@H]1CCCC(=O)N2` [BDG_33628681], the Inhibition percent was -1.67%.

Regarding `Cc1cccc(NC(=O)CCCC(=O)N2[C@H](Cc3ccccc3)C[C@]3(C)NC(=O)CCC[C@H]23)n1` [BDG_33629701], the Inhibition percent is listed as -3.82%.

For the compound `COc1ccc2c(c1)[C@H]1OCC3(CCN(S(C)(=O)=O)CC3)C[C@@H]1C(C)(C)O2` [BDG_33690555], the Inhibition percent is listed as -0.51%.

`CC1(C)Oc2cc(O)ccc2[C@H]2OCC3(CCN(C(=O)c4ncccc4O)CC3)C[C@@H]21` [BDG_33691662]: the Inhibition percent is recorded as -1.26%.
